In patent US11299500B2, “Crystalline form of lorlatinib free base hydrate” (Pfizer Inc., priority 2017, dated 2022):

Assays:
[1] = Physical stability in aqueous-based formulations; assay type: physicochemical; conditions: relative to anhydrous free base (Form 7) and acetic acid solvate (Form 3); e.g., topical formulations
[2] = Water sorption/desorption study by DVS; assay type: physicochemical
Procedure: A DVS method was employed to study the sorption/desorption behavior of Form 24.
Method: The method involved a standard sorption run from 0% RH to 90% RH, employing humidity rise at steps of 10% RH at 20° C., followed by a de-sorption run down to 0% RH and a second sorption/desorption cycle from 0% RH to 90% RH in 10% step change of RH at 20° C.

[3] = tested on: c-ros oncogene 1 (ROS1) receptor tyrosine kinase; conditions: wild type and resistance mutant forms, including ROS1 G2032R; cited from earlier work
[4] = tested on: ALK-positive NSCLC xenograft models and intracranial ALK-positive tumor models; conditions: cited from earlier work
[5] = tested on: anaplastic lymphoma kinase (ALK); conditions: wild type and resistance mutant forms, including ALK G1202R; cited from earlier work
[6] = targeted relative humidity 0% RH, 20° C.
[7] = targeted relative humidity 10% RH, 20° C.
[8] = targeted relative humidity 20% RH, 20° C.
[9] = targeted relative humidity 30% RH, 20° C.
[10] = targeted relative humidity 40% RH, 20° C.
[11] = targeted relative humidity 50% RH, 20° C.
[12] = targeted relative humidity 60% RH, 20° C.
[13] = targeted relative humidity 70% RH, 20° C.
[14] = targeted relative humidity 80% RH, 20° C.
[15] = targeted relative humidity 90% RH, 20° C.

C[C@H]1Oc2cc(cnc2N)-c2c(nn(C)c2C#N)CN(C)C(=O)c2ccc(F)cc21 [Form 24, (10R)-7-amino-12-fluoro-2,10,16-trimethyl-15-oxo-10,15,16,17-tetrahydro-2H-8,4-(metheno)pyrazolo[4,3-h][2,5,11]benzoxadiazacyclotetra-decine-3-carbonitrile (lorlatinib) Free Base Hydrate (Form 24)]
physical stability in aqueous-based formulations [1]: improved physical stability
hysteresis of de-sorption isotherms with respect to sorption isotherm ([2]; 0-90% RH, 20° C.): very little hysteresis
% Water First Cycle [2, 6]: 0.00%
% Water Second Cycle [2, 6]: 0.00%
% Water First Cycle [2, 7]: 0.06%
% Water Second Cycle [2, 7]: 0.06%
% Water First Cycle [2, 8]: 0.13%
% Water Second Cycle [2, 8]: 0.13%
% Water First Cycle [2, 9]: 0.19%
% Water Second Cycle [2, 9]: 0.20%
% Water First Cycle [2, 10]: 0.27%
% Water Second Cycle [2, 10]: 0.27%
% Water First Cycle [2, 11]: 0.34%
% Water Second Cycle [2, 11]: 0.35%
% Water First Cycle [2, 12]: 0.43%
% Water Second Cycle [2, 12]: 0.44%
% Water First Cycle [2, 13]: 0.52%
% Water Second Cycle [2, 13]: 0.54%
% Water First Cycle [2, 14]: 0.64%
% Water Second Cycle [2, 14]: 0.65%
% Water First Cycle [2, 15]: 0.78%
% Water Second Cycle [2, 15]: 0.78%
change of mass between a dry and wet state ([2]; water level change between dry and wet state): below 1%

C[C@H]1Oc2cc(cnc2N)-c2c(nn(C)c2C#N)CN(C)C(=O)c2ccc(F)cc21 [Lorlatinib, (10R)-7-amino-12-fluoro-2,10,16-trimethyl-15-oxo-10,15,16,17-tetra-hydro-2H-8,4-(metheno)pyrazolo[4,3-h][2,5,11]benzoxadiazacyclotetradecine-3-carbonitrile]
potency against ROS1 [3]: nanomolar potency
antitumor activity [4]: demonstrated antitumor activity
potency against ALK [5]: nanomolar potency
